Data as given in PubChem BioAssay AID2060912 (Molecular Pharmacology Branch, DTP, NCI, 2025).

Test system: HUVEC/MSC spheroids viability
Assay: Human HUVEC/MSC cell line growth inhibition [KRAS2];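 as to viability, T/C: percent of DMSO vehicle control luminescence so 100% = untreated viability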
Conditions: for IC50: curve of first compound; for viability, T/C: stronger effect = lower value; active = viability on the fitted dose curve at most 10% of control; inactive = the rest
Method in brief: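 Spheroids of human HUVEC plus MSCs, without tumor cells, were treated with single agents and combinations. Each drug was tested in half-log steps down from near its clinical Cmax, or from 10 microM when Cmax was unknown. HUVEC and hMSC were used at passage </=5.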

CC1COCCN1c1cc(-c2ccnn2C)c2ccnc(-c3ccn[nH]3)c2n1 (centres undefined) + C=CC(=O)N1CCN(c2nc(OCC3CCCN3C)nc3c2CCN(c2cccc4cccc(C)c24)C3)CC1CC#N
0.635 µM: IC50 (second compound 0.0949 µM)
0.362 µM: IC50 (second compound 0.949 µM)
> 3 µM: IC50 (second compound 3 µM)
0.661 µM: IC50 (second compound 0.3 µM)
0.916 µM: IC50 (second compound 0.03 µM)
inactive: viability, T/C (second compound 0.00949 µM, first compound 0.00949 µM) 79.3% | viability, T/C (second compound 0.00949 µM, first compound 0.03 µM) 76.5% | viability, T/C (second compound 0.00949 µM, first compound 0.0949 µM) 77% | viability, T/C (second compound 0.00949 µM, first compound 0.3 µM) 77% | viability, T/C (second compound 0.00949 µM, first compound 0.949 µM) 51.9% | viability, T/C (second compound 0.00949 µM, first compound 3 µM) 42.8% | viability, T/C (second compound 0.03 µM, first compound 0.00949 µM) 87.7% | viability, T/C (second compound 0.03 µM, first compound 0.03 µM) 90.9% | viability, T/C (second compound 0.03 µM, first compound 0.0949 µM) 77.6% | viability, T/C (second compound 0.03 µM, first compound 0.3 µM) 66.6% | viability, T/C (second compound 0.03 µM, first compound 0.949 µM) 49.7% | viability, T/C (second compound 0.03 µM, first compound 3 µM) 37.9% | viability, T/C (second compound 0.0949 µM, first compound 0.00949 µM) 73.5% | viability, T/C (second compound 0.0949 µM, first compound 0.03 µM) 85.3% | viability, T/C (second compound 0.0949 µM, first compound 0.0949 µM) 70.8% | viability, T/C (second compound 0.0949 µM, first compound 0.3 µM) 69.1% | viability, T/C (second compound 0.0949 µM, first compound 0.949 µM) 39.5% | viability, T/C (second compound 0.0949 µM, first compound 3 µM) 37.8% | viability, T/C (second compound 0.3 µM, first compound 0.00949 µM) 66.8% | viability, T/C (second compound 0.3 µM, first compound 0.03 µM) 71.4% | viability, T/C (second compound 0.3 µM, first compound 0.0949 µM) 72% | viability, T/C (second compound 0.3 µM, first compound 0.3 µM) 62.6% | viability, T/C (second compound 0.3 µM, first compound 0.949 µM) 44.2% | viability, T/C (second compound 0.3 µM, first compound 3 µM) 34.8% | viability, T/C (second compound 0.949 µM, first compound 0.00949 µM) 67.7% | viability, T/C (second compound 0.949 µM, first compound 0.03 µM) 65% | viability, T/C (second compound 0.949 µM, first compound 0.0949 µM) 68% | viability, T/C (second compound 0.949 µM, first compound 0.3 µM) 51.5% | viability, T/C (second compound 0.949 µM, first compound 0.949 µM) 45% | viability, T/C (second compound 0.949 µM, first compound 3 µM) 40.1% | viability, T/C (second compound 3 µM, first compound 0.00949 µM) 81.6% | viability, T/C (second compound 3 µM, first compound 0.03 µM) 78.6% | viability, T/C (second compound 3 µM, first compound 0.0949 µM) 86% | viability, T/C (second compound 3 µM, first compound 0.3 µM) 81.2% | viability, T/C (second compound 3 µM, first compound 0.949 µM) 54.5% | viability, T/C (second compound 3 µM, first compound 3 µM) 50.4%
1.21 µM: IC50 (second compound 0.00949 µM)

Cn1ncnc1[C@H]1c2n[nH]c(=O)c3cc(F)cc(c23)N[C@@H]1c1ccc(F)cc1 + CC1OCC2(CCN(c3cnc(Sc4ccnc(N)c4Cl)c(N)n3)CC2)C1N
inactive: viability, T/C (second compound 0.0316 µM, first compound 0.000316 µM) 105% | viability, T/C (second compound 0.0316 µM, first compound 0.001 µM) 111% | viability, T/C (second compound 0.0316 µM, first compound 0.00316 µM) 97.5% | viability, T/C (second compound 0.0316 µM, first compound 0.01 µM) 86.9% | viability, T/C (second compound 0.0316 µM, first compound 0.0316 µM) 90.8% | viability, T/C (second compound 0.0316 µM, first compound 0.1 µM) 89.7% | viability, T/C (second compound 0.1 µM, first compound 0.000316 µM) 87.9% | viability, T/C (second compound 0.1 µM, first compound 0.001 µM) 114% | viability, T/C (second compound 0.1 µM, first compound 0.00316 µM) 99.9% | viability, T/C (second compound 0.1 µM, first compound 0.01 µM) 75.7% | viability, T/C (second compound 0.1 µM, first compound 0.0316 µM) 93.2% | viability, T/C (second compound 0.1 µM, first compound 0.1 µM) 95.6% | viability, T/C (second compound 0.316 µM, first compound 0.000316 µM) 80% | viability, T/C (second compound 0.316 µM, first compound 0.001 µM) 111% | viability, T/C (second compound 0.316 µM, first compound 0.00316 µM) 98.5% | viability, T/C (second compound 0.316 µM, first compound 0.01 µM) 96.9% | viability, T/C (second compound 0.316 µM, first compound 0.0316 µM) 93.2% | viability, T/C (second compound 0.316 µM, first compound 0.1 µM) 81.7% | viability, T/C (second compound 1 µM, first compound 0.000316 µM) 83.9% | viability, T/C (second compound 1 µM, first compound 0.001 µM) 93.7% | viability, T/C (second compound 1 µM, first compound 0.00316 µM) 95.4% | viability, T/C (second compound 1 µM, first compound 0.01 µM) 84.3% | viability, T/C (second compound 1 µM, first compound 0.0316 µM) 93.8% | viability, T/C (second compound 1 µM, first compound 0.1 µM) 67.7% | viability, T/C (second compound 3.16 µM, first compound 0.000316 µM) 79.7% | viability, T/C (second compound 3.16 µM, first compound 0.001 µM) 94.4% | viability, T/C (second compound 3.16 µM, first compound 0.00316 µM) 80.9% | viability, T/C (second compound 3.16 µM, first compound 0.01 µM) 74% | viability, T/C (second compound 3.16 µM, first compound 0.0316 µM) 76.8% | viability, T/C (second compound 3.16 µM, first compound 0.1 µM) 69.2% | viability, T/C (second compound 10 µM, first compound 0.000316 µM) 69.7% | viability, T/C (second compound 10 µM, first compound 0.001 µM) 82.3% | viability, T/C (second compound 10 µM, first compound 0.00316 µM) 67.3% | viability, T/C (second compound 10 µM, first compound 0.01 µM) 68.3% | viability, T/C (second compound 10 µM, first compound 0.0316 µM) 65.7% | viability, T/C (second compound 10 µM, first compound 0.1 µM) 56%
> 0.1 µM: IC50 (second compound 0.0316 µM) | IC50 (second compound 0.1 µM) | IC50 (second compound 0.316 µM) | IC50 (second compound 1 µM) | IC50 (second compound 3.16 µM) | IC50 (second compound 10 µM)
